Values joined by “and” are separate entries in the source; they are usually repeats but may differ in a detail not shown here. Identical values can stand only once.
Tests used:
[1] = Example 2 Part D: single- and multiple-dose PK of tucatinib and ONT-993; type: in vivo, human; settings: tucatinib 300 mg BID, Day 10 vs Day 4
Source text: Other noncompartmental PK parameters may be reported.

CYP3A4 = CYP3A4 (Homo sapiens, UniProt P08684); test: Ki determination in pooled human liver microsomes, midazolam 1'-hydroxylase (Example 5); type: in vitro ADME
Protocol: (§1) The objective of this study was to evaluate in vitro the Ki of tucatinib of the following human hepatic cytochrome P450 (CYP) enzymes (CYP2C8, CYP2C9, and CYP3A4) and UGT1A1. […] Pooled human liver microsomes (HLM) from 150 individuals (79 males and 71 females) were obtained from BioreclamationIVT (Baltimore, Md.) and stored at approximately −70° C. The microsomes were characterized by the supplier for total protein and selected cytochrome P450 activities. […] The final organic solvent contribution was ≤1%. Incubations were terminated by the addition of chilled acetonitrile containing a stable isotope-labeled internal standard. […] Samples were analyzed by liquid chromatography with tandem mass spectrometry (LC-MS/MS). Analyte concentrations were quantified by LC-MS/MS and interpolated from standard curves of authentic analyte. […] Activities were calculated based on analyte concentration, incubation time, and protein concentration. Enzymatic activity (pmol/minute/mg protein) was expressed as the formation of the analyte per final protein concentration per incubation time. Activity remaining was expressed as the enzymatic activity at each concentration point of the test article normalized by the solvent control mean activity. […]

UGT1A1 = target: T1, UGT1A1 (Homo sapiens, UniProt P22309); test: Ki determination in pooled human liver microsomes, β-estradiol 3-glucuronidation (Example 5); type: in vitro ADME
T1 construct: tissue BioreclamationIVT (Baltimore, Md.); host or cells: pooled human liver microsomes, 150 donors
T1 sequence (P22309 26-533): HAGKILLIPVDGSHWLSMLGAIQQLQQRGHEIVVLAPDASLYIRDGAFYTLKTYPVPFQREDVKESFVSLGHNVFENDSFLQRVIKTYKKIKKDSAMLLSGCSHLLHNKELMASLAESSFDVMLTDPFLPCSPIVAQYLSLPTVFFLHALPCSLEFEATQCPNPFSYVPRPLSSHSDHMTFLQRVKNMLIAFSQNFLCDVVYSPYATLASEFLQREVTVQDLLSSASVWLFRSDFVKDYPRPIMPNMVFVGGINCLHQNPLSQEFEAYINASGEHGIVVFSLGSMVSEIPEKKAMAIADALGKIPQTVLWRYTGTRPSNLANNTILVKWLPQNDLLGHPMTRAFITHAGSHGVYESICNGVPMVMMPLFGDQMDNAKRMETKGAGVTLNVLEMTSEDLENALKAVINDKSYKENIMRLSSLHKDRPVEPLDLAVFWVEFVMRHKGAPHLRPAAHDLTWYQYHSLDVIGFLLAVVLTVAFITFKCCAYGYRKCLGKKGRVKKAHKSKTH
Protocol: as §1

CYP2C8 = target: T2, CYP2C8 (Homo sapiens, UniProt P10632); test: Example 2 Part D: effect of tucatinib on PK of substrate probe repaglinide; type: in vivo; design: endogenous in cells; host or cells: healthy human subjects, in vivo; settings: steady-state tucatinib 300 mg BID, probe repaglinide
T2 sequence (P10632 1-490): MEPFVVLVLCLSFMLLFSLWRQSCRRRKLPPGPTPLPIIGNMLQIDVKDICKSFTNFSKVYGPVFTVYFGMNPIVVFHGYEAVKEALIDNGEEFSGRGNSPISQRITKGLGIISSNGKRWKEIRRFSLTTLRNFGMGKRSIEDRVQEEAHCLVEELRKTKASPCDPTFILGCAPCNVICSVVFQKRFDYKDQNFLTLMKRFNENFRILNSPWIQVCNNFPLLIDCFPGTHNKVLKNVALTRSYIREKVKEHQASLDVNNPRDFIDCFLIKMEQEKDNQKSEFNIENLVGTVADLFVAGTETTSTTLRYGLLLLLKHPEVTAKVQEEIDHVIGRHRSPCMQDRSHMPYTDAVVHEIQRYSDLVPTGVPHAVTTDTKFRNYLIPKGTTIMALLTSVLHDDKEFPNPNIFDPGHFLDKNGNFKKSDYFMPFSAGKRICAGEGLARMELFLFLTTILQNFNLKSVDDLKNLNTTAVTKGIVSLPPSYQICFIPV
Protocol: A Phase 1, open-label, fixed-sequence, 5-part, drug-drug interaction study of tucatinib was conducted to evaluate the effects of CYP3A4 and CYP2C8 inhibition and induction on the pharmacokinetics of tucatinib and to evaluate the effects of tucatinib on the pharmacokinetics of substrates of CYP3A4, CYP2C8, CYP2C9, and P-glycoprotein in healthy male and female subjects.
Part B evaluates the effect of rifampin, a strong inducer of CYP3A4 and CYP2C8, on the PK of tucatinib. […] Part E evaluates the effect of tucatinib on the PK of a substrate probe of the transporter P-gp (digoxin). […] For Parts A, B, and C, tucatinib is given as a single oral dose because evaluating plasma exposures after a single dose of tucatinib is expected to provide an appropriate assessment of the impact of the probe drugs on tucatinib PK. In Parts D and E, tucatinib is given as a multiple-dosing regimen in order to examine its effects on probe drugs at steady state, at which maximal inhibition of CYP2C8, CYP2C9, CYP3A4, and P-gp by tucatinib should be achieved.
Secondary objectives of the study included: (1) assessing the safety and tolerability of tucatinib when administered alone and when co-administered with substrate probes of CYP2C8, CYP2C9, and CYP3A4; and (2) assessing the single-dose PK of tucatinib and assessing the multiple-dose, steady-state PK of tucatinib alone and in the presence of substrate probes of CYP2C8, CYP2C9, and CYP3A4 in healthy subjects.
They were discharged on Day 14 after completion of the in-patient assessments.
On Day 1, each subject received a single oral dose of 0.5 mg of repaglinide. […] From Day 4 to Day 13, each subject received oral doses of 300 mg of tucatinib, twice daily (BID). On Day 11, each subject received a single oral dose of repaglinide. […] Tucatinib was provided as 150-mg tablets (2 tablets for the 300-mg dose), repaglinide was provided as 0.5-mg tablets, olbutamide was provided as 500-mg tablets, and midazolam was provided as a syrup (2 mg/mL; 1 mL syrup for the 2-mg dose). Tucatinib, repaglinide, olbutamide and midazolam were administered before meals preceded by an at least 8-hour overnight fast.
Other noncompartmental PK parameters may be reported. Additionally, blood samples for determination of plasma concentrations of tucatinib and ONT-993 were collected at the time points indicated in FIG. 8. […] A single genotyping blood sample was collected to assess possible effect of CYP polymorphisms or other genetic polymorphisms on the magnitude of drug interactions of tucatinib with probe drugs and substrates.

CYP3A4, sequence (P08684 whole entry): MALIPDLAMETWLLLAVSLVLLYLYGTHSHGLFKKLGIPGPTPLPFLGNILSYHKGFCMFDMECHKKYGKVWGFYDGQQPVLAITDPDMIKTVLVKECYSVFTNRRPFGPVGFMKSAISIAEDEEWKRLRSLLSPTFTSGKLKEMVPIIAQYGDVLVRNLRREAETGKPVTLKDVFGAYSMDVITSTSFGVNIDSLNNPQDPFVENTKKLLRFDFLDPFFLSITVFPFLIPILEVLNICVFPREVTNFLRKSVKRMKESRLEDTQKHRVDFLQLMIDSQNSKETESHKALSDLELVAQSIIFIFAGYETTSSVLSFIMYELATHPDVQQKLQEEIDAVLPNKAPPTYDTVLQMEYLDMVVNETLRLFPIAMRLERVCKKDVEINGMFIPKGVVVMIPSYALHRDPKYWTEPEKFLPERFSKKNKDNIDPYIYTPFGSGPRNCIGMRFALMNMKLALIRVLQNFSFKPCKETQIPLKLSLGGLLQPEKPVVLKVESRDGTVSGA

With `Cc1cc(Nc2ncnc3ccc(NC4=NC(C)(C)CO4)cc23)ccc1Oc1ccn2ncnc2c1` [tucatinib] the “Rac (accumulation ratio) after multiple dosing” value [1] was 1.85, the “Inhibition mechanism, CYP3A4” value (CYP3A4) was “competitive inhibition” and the Ki (CYP3A4; marker substrate midazolam) was 810 nM and 805 nM. The “Inhibition mechanism, UGT1A1” value (UGT1A1) was “competitive inhibition”, the Ki (UGT1A1; marker substrate β-estradiol) was 1810 nM and the “Inhibition of CYP2C8 in vivo” value (CYP2C8) was “weak inhibitor”.
